Measurements reported in PubChem BioAssay (NCI).
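All cell lines were grown in 96-well plates and treated with compound for 48 hours. The concentration for 50% growth inhibition is given as GI50. TGI marks complete inhibition of growth.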

How the values were obtained:
Test in all cases: NCI-60 cell line screen, 48 h; in the data active = GI50 below about 0.43 µM; inactive = the rest
SNB-19 CNS = system: SNB-19 CNS
M14 melanoma = system: M14 melanoma
MALME-3M melanoma = system: MALME-3M melanoma
SF-539 CNS = system: SF-539 CNS
CAKI-1 renal = system: CAKI-1 renal
MDA-MB-231 breast = system: MDA-MB-231 breast
NCI/ADR-RES ovarian = system: NCI/ADR-RES ovarian
HS 578T breast = system: HS 578T breast
SR leukemia = system: SR leukemia
UO-31 renal = system: UO-31 renal
MDA-MB-435 = system: MDA-MB-435
K-562 leukemia = system: K-562 leukemia
LOX IMVI melanoma = system: LOX IMVI melanoma
UACC-257 melanoma = system: UACC-257 melanoma
HOP-92 NSCLC = system: HOP-92 NSCLC
SW-620 colon = system: SW-620 colon
ACHN renal = system: ACHN renal
SF-268 CNS = system: SF-268 CNS
UACC-62 melanoma = system: UACC-62 melanoma
PC-3 prostate = system: PC-3 prostate
SK-MEL-5 melanoma = system: SK-MEL-5 melanoma
SNB-75 CNS = system: SNB-75 CNS
RXF 393 renal = system: RXF 393 renal
HOP-62 NSCLC = system: HOP-62 NSCLC
SK-MEL-2 melanoma = system: SK-MEL-2 melanoma
COLO 205 colon = system: COLO 205 colon
HL-60(TB) leukemia = system: HL-60(TB) leukemia
IGROV1 ovarian = system: IGROV1 ovarian
NCI-H460 lung = system: NCI-H460 lung
MCF7 breast = system: MCF7 breast
MOLT-4 leukemia = system: MOLT-4 leukemia
OVCAR-8 ovarian = system: OVCAR-8 ovarian
DU-145 prostate = system: DU-145 prostate
EKVX NSCLC = system: EKVX NSCLC
NCI-H522 lung = system: NCI-H522 lung
HT29 colon = system: HT29 colon
RPMI-8226 leukemia = system: RPMI-8226 leukemia
CCRF-CEM leukemia = system: CCRF-CEM leukemia
NCI-H226 lung = system: NCI-H226 lung
SN12C renal = system: SN12C renal
OVCAR-4 ovarian = system: OVCAR-4 ovarian
T-47D breast = system: T-47D breast
A498 renal = system: A498 renal
HCT-15 colon = system: HCT-15 colon
SK-MEL-28 melanoma = system: SK-MEL-28 melanoma
NCI-H23 lung = system: NCI-H23 lung
U251 CNS = system: U251 CNS
OVCAR-3 ovarian = system: OVCAR-3 ovarian
A549 NSCLC = system: A549 NSCLC
TK-10 renal = system: TK-10 renal
KM12 colon = system: KM12 colon
SF-295 CNS = system: SF-295 CNS
HCT-116 colon = system: HCT-116 colon
HCC-2998 colon = system: HCC-2998 colon
SK-OV-3 ovarian = system: SK-OV-3 ovarian
BT-549 breast = system: BT-549 breast
OVCAR-5 ovarian = system: OVCAR-5 ovarian
786-0 renal = system: 786-0 renal

O=[N+]([O-])c1ccccc1NC1c2ccccc2Oc2ccccc21
38.6 µM: TGI (SNB-75 CNS)
> 100 µM: TGI (SNB-19 CNS) | TGI (M14 melanoma) | TGI (MALME-3M melanoma) | TGI (SF-539 CNS) | TGI (CAKI-1 renal) | TGI (NCI/ADR-RES ovarian) | TGI (HS 578T breast) | TGI (SR leukemia) | TGI (UO-31 renal) | TGI (K-562 leukemia) | TGI (LOX IMVI melanoma) | TGI (UACC-257 melanoma) | TGI (HOP-92 NSCLC) | TGI (SW-620 colon) | TGI (ACHN renal) | TGI (SF-268 CNS) | TGI (UACC-62 melanoma) | TGI (PC-3 prostate) | TGI (SK-MEL-5 melanoma) | TGI (HOP-62 NSCLC) | TGI (SK-MEL-2 melanoma) | TGI (COLO 205 colon) | TGI (IGROV1 ovarian) | TGI (NCI-H460 lung) | TGI (MCF7 breast) | TGI (MOLT-4 leukemia) | TGI (OVCAR-8 ovarian) | TGI (DU-145 prostate) | TGI (EKVX NSCLC) | TGI (NCI-H522 lung) | TGI (HT29 colon) | TGI (RPMI-8226 leukemia) | TGI (CCRF-CEM leukemia) | TGI (NCI-H226 lung) | TGI (SN12C renal) | TGI (OVCAR-4 ovarian) | TGI (T-47D breast) | TGI (A498 renal) | TGI (HCT-15 colon) | TGI (SK-MEL-28 melanoma) | TGI (NCI-H23 lung) | TGI (U251 CNS) | TGI (OVCAR-3 ovarian) | TGI (A549 NSCLC) | TGI (TK-10 renal) | TGI (KM12 colon) | TGI (SF-295 CNS) | TGI (HCT-116 colon) | TGI (HCC-2998 colon)
inactive: GI50 (SNB-19 CNS) 4.35 µM | GI50 (M14 melanoma) 3.53 µM | GI50 (MALME-3M melanoma) 7.13 µM | GI50 (SF-539 CNS) 3.27 µM | GI50 (CAKI-1 renal) 11 µM | GI50 (MDA-MB-231 breast) 3.95 µM | GI50 (NCI/ADR-RES ovarian) 4.03 µM | GI50 (HS 578T breast) 8.35 µM | GI50 (SR leukemia) 3.32 µM | GI50 (UO-31 renal) 7.46 µM | GI50 (MDA-MB-435) 2.5 µM | GI50 (K-562 leukemia) 3.69 µM | GI50 (LOX IMVI melanoma) 5.52 µM | GI50 (UACC-257 melanoma) 7.2 µM | GI50 (HOP-92 NSCLC) 4.22 µM | GI50 (SW-620 colon) 3.55 µM | GI50 (ACHN renal) 5.93 µM | GI50 (SF-268 CNS) 8.06 µM | GI50 (UACC-62 melanoma) 2.94 µM | GI50 (PC-3 prostate) 5.88 µM | GI50 (SK-MEL-5 melanoma) 3.44 µM | GI50 (SNB-75 CNS) 2.94 µM | GI50 (RXF 393 renal) 3.35 µM | GI50 (HOP-62 NSCLC) 8.07 µM | GI50 (SK-MEL-2 melanoma) 8.43 µM | GI50 (COLO 205 colon) 3.59 µM | GI50 (HL-60(TB) leukemia) 2.8 µM | GI50 (IGROV1 ovarian) 16.9 µM | GI50 (NCI-H460 lung) 3.87 µM | GI50 (MCF7 breast) 4.13 µM | GI50 (MOLT-4 leukemia) 5.03 µM | GI50 (OVCAR-8 ovarian) 6.73 µM | GI50 (DU-145 prostate) 43 µM | GI50 (EKVX NSCLC) 17.2 µM | GI50 (NCI-H522 lung) 3.84 µM | GI50 (HT29 colon) 3.83 µM | GI50 (RPMI-8226 leukemia) 5.86 µM | GI50 (CCRF-CEM leukemia) 4.44 µM | GI50 (NCI-H226 lung) 5.91 µM | GI50 (SN12C renal) 6.17 µM | GI50 (OVCAR-4 ovarian) 8.21 µM | GI50 (T-47D breast) 27.8 µM | GI50 (A498 renal) 5.82 µM | GI50 (HCT-15 colon) 3.5 µM | GI50 (SK-MEL-28 melanoma) 4.85 µM | GI50 (NCI-H23 lung) 9.67 µM | GI50 (U251 CNS) 4.88 µM | GI50 (OVCAR-3 ovarian) 3.64 µM | GI50 (A549 NSCLC) 6.51 µM | GI50 (TK-10 renal) 29.1 µM | GI50 (KM12 colon) 4.34 µM | GI50 (SF-295 CNS) 4.45 µM | GI50 (HCT-116 colon) 4.08 µM | GI50 (HCC-2998 colon) 75.2 µM
66.6 µM: TGI (MDA-MB-231 breast)
16.6 µM: TGI (RXF 393 renal)
7.09 µM: TGI (HL-60(TB) leukemia)
6.64 µM: TGI (MDA-MB-435)

COP(=O)(Cc1ccccc1)Cc1ccccc1
> 100 µM: TGI (M14 melanoma) | TGI (MALME-3M melanoma) | TGI (SK-OV-3 ovarian) | TGI (SF-539 CNS) | TGI (CAKI-1 renal) | TGI (MDA-MB-231 breast) | TGI (NCI/ADR-RES ovarian) | TGI (HS 578T breast) | TGI (SR leukemia) | TGI (UO-31 renal) | TGI (K-562 leukemia) | TGI (LOX IMVI melanoma) | TGI (UACC-257 melanoma) | TGI (SW-620 colon) | TGI (ACHN renal) | TGI (SF-268 CNS) | TGI (UACC-62 melanoma) | TGI (PC-3 prostate) | TGI (SK-MEL-5 melanoma) | TGI (SNB-75 CNS) | TGI (RXF 393 renal) | TGI (BT-549 breast) | TGI (HOP-62 NSCLC) | TGI (SK-MEL-2 melanoma) | TGI (COLO 205 colon) | TGI (HL-60(TB) leukemia) | TGI (IGROV1 ovarian) | TGI (NCI-H460 lung) | TGI (MCF7 breast) | TGI (MOLT-4 leukemia) | TGI (OVCAR-8 ovarian) | TGI (DU-145 prostate) | TGI (EKVX NSCLC) | TGI (NCI-H522 lung) | TGI (HT29 colon) | TGI (RPMI-8226 leukemia) | TGI (CCRF-CEM leukemia) | TGI (NCI-H226 lung) | TGI (SN12C renal) | TGI (OVCAR-4 ovarian) | TGI (T-47D breast) | TGI (HCT-15 colon) | TGI (SK-MEL-28 melanoma) | TGI (NCI-H23 lung) | TGI (OVCAR-5 ovarian) | TGI (U251 CNS) | TGI (A549 NSCLC) | TGI (TK-10 renal) | TGI (SF-295 CNS) | TGI (HCT-116 colon) | TGI (786-0 renal) | TGI (HCC-2998 colon)
